From the supplement of paper PMC10307832

How the values were obtained:
Assay in all cases: relative viability (nuclei count vs DMSO), 5 days (fraction); higher = more cells survive
CAP-232 = compound: C[C@H]([C@@H](C(=O)N)NC(=O)[C@@H]1CSSC[C@@H](C(=O)N[C@H](C(=O)N[C@@H](C(=O)N[C@H](C(=O)N1)CCCCN)CC2=CNC3=CC=CC=C32)CC4=CC=C(C=C4)O)NC(=O)[C@@H](CC5=CC=CC=C5)N)O [CAP-232]
Summary of the method: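 Cells of lung cancer lines were placed in 1536-well plates and kept overnight at 37 °C. Pinning then delivered five library-drug doses (not always all listed), spaced by √10, onto plates anchored with vehicle, and the cells were left 5 days without changing medium. One step fixed, permeabilised and stained them with Hoechst, and MetaXpress counted nuclei in 4× images. Viability, as a median over plates, is treated-well nuclei divided by vehicle-well nuclei, with acceptance only at control CV below 25% and at least one doubling.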

CAP-232 + Navitoclax = compound: C[C@H]([C@@H](C(=O)N)NC(=O)[C@@H]1CSSC[C@@H](C(=O)N[C@H](C(=O)N[C@@H](C(=O)N[C@H](C(=O)N1)CCCCN)CC2=CNC3=CC=CC=C32)CC4=CC=C(C=C4)O)NC(=O)[C@@H](CC5=CC=CC=C5)N)O [CAP-232] + CC1(C)CCC(c2ccc(Cl)cc2)=C(CN2CCN(c3ccc(C(=O)NS(=O)(=O)c4ccc(N[C@H](CCN5CCOCC5)CSc5ccccc5)c(S(=O)(=O)C(F)(F)F)c4)cc3)CC2)C1 [Navitoclax] (partner 0.5 µM)
Summary of the method: (§1)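 Values are medians from duplicate plates. Each reflects relative viability, defined as the nuclei count of treated wells over that of vehicle wells. Lung cancer cell lines in 1536-well plates were pin-tool dosed one day after seeding with one drug alone or with a fixed anchor-drug dose plus five library-drug doses (not always all listed) in √10 steps, then fixed, stained and imaged at 4× after 5 days.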

CAP-232 + Linsitinib = compound: C[C@H]([C@@H](C(=O)N)NC(=O)[C@@H]1CSSC[C@@H](C(=O)N[C@H](C(=O)N[C@@H](C(=O)N[C@H](C(=O)N1)CCCCN)CC2=CNC3=CC=CC=C32)CC4=CC=C(C=C4)O)NC(=O)[C@@H](CC5=CC=CC=C5)N)O [CAP-232] + C[C@]1(O)C[C@@H](c2nc(-c3ccc4ccc(-c5ccccc5)nc4c3)c3c(N)nccn32)C1 [Linsitinib] (partner 1 µM)
Summary of the method: as §1

CAP-232 + Bortezomib = compound: C[C@H]([C@@H](C(=O)N)NC(=O)[C@@H]1CSSC[C@@H](C(=O)N[C@H](C(=O)N[C@@H](C(=O)N[C@H](C(=O)N1)CCCCN)CC2=CNC3=CC=CC=C32)CC4=CC=C(C=C4)O)NC(=O)[C@@H](CC5=CC=CC=C5)N)O [CAP-232] + CC(C)C[C@H](NC(=O)[C@H](Cc1ccccc1)NC(=O)c1cnccn1)B(O)O [Bortezomib] (partner 0.002 µM)
Summary of the method: as §1

CAP-232 + Crizotinib = compound: C[C@H]([C@@H](C(=O)N)NC(=O)[C@@H]1CSSC[C@@H](C(=O)N[C@H](C(=O)N[C@@H](C(=O)N[C@H](C(=O)N1)CCCCN)CC2=CNC3=CC=CC=C32)CC4=CC=C(C=C4)O)NC(=O)[C@@H](CC5=CC=CC=C5)N)O [CAP-232] + C[C@@H](Oc1cc(-c2cnn(C3CCNCC3)c2)cnc1N)c1c(Cl)ccc(F)c1Cl [Crizotinib] (partner 1 µM)
Summary of the method: as §1

CAP-232 + Pictilisib = compound: C[C@H]([C@@H](C(=O)N)NC(=O)[C@@H]1CSSC[C@@H](C(=O)N[C@H](C(=O)N[C@@H](C(=O)N[C@H](C(=O)N1)CCCCN)CC2=CNC3=CC=CC=C32)CC4=CC=C(C=C4)O)NC(=O)[C@@H](CC5=CC=CC=C5)N)O [CAP-232] + CS(=O)(=O)N1CCN(Cc2cc3nc(-c4cccc5[nH]ncc45)nc(N4CCOCC4)c3s2)CC1 [Pictilisib] (partner 1 µM)
Summary of the method: as §1

CAP-232 + Lapatinib = compound: C[C@H]([C@@H](C(=O)N)NC(=O)[C@@H]1CSSC[C@@H](C(=O)N[C@H](C(=O)N[C@@H](C(=O)N[C@H](C(=O)N1)CCCCN)CC2=CNC3=CC=CC=C32)CC4=CC=C(C=C4)O)NC(=O)[C@@H](CC5=CC=CC=C5)N)O [CAP-232] + CS(=O)(=O)CCNCc1ccc(-c2ccc3ncnc(Nc4ccc(OCc5cccc(F)c5)c(Cl)c4)c3c2)o1 [Lapatinib] (partner 2 µM)
Summary of the method: as §1

CAP-232 + Foretinib = compound: C[C@H]([C@@H](C(=O)N)NC(=O)[C@@H]1CSSC[C@@H](C(=O)N[C@H](C(=O)N[C@@H](C(=O)N[C@H](C(=O)N1)CCCCN)CC2=CNC3=CC=CC=C32)CC4=CC=C(C=C4)O)NC(=O)[C@@H](CC5=CC=CC=C5)N)O [CAP-232] + COc1cc2c(Oc3ccc(NC(=O)C4(C(=O)Nc5ccc(F)cc5)CC4)cc3F)ccnc2cc1OCCCN1CCOCC1 [Foretinib] (partner 0.25 µM)
Summary of the method: as §1

CAP-232 + Olaparib = compound: C[C@H]([C@@H](C(=O)N)NC(=O)[C@@H]1CSSC[C@@H](C(=O)N[C@H](C(=O)N[C@@H](C(=O)N[C@H](C(=O)N1)CCCCN)CC2=CNC3=CC=CC=C32)CC4=CC=C(C=C4)O)NC(=O)[C@@H](CC5=CC=CC=C5)N)O [CAP-232] + O=C(c1cc(Cc2n[nH]c(=O)c3ccccc23)ccc1F)N1CCN(C(=O)C2CC2)CC1 [Olaparib] (partner 8 µM)
Summary of the method: as §1

CAP-232 + Alpelisib = compound: C[C@H]([C@@H](C(=O)N)NC(=O)[C@@H]1CSSC[C@@H](C(=O)N[C@H](C(=O)N[C@@H](C(=O)N[C@H](C(=O)N1)CCCCN)CC2=CNC3=CC=CC=C32)CC4=CC=C(C=C4)O)NC(=O)[C@@H](CC5=CC=CC=C5)N)O [CAP-232] + Cc1nc(NC(=O)N2CCC[C@H]2C(N)=O)sc1-c1ccnc(C(C)(C)C(F)(F)F)c1 [Alpelisib] (partner 2 µM)
Summary of the method: as §1

Row | Cell Line | relative viability (CAP-232; 0.4 µM) | relative viability (CAP-232; 1.265 µM) | relative viability (CAP-232; 4 µM) | relative viability (CAP-232; 12.65 µM) | relative viability (CAP-232 + Navitoclax; first compound 0.4 µM) | relative viability (CAP-232 + Navitoclax; first compound 1.265 µM) | relative viability (CAP-232 + Navitoclax; first compound 4 µM) | relative viability (CAP-232 + Navitoclax; first compound 12.65 µM) | relative viability (CAP-232 + Linsitinib; first compound 0.4 µM) | relative viability (CAP-232 + Linsitinib; first compound 1.265 µM) | relative viability (CAP-232 + Linsitinib; first compound 4 µM) | relative viability (CAP-232 + Linsitinib; first compound 12.65 µM) | relative viability (CAP-232 + Bortezomib; first compound 0.4 µM) | relative viability (CAP-232 + Bortezomib; first compound 1.265 µM) | relative viability (CAP-232 + Bortezomib; first compound 4 µM) | relative viability (CAP-232 + Bortezomib; first compound 12.65 µM) | relative viability (CAP-232 + Crizotinib; first compound 0.4 µM) | relative viability (CAP-232 + Crizotinib; first compound 1.265 µM) | relative viability (CAP-232 + Crizotinib; first compound 4 µM) | relative viability (CAP-232 + Crizotinib; first compound 12.65 µM) | relative viability (CAP-232 + Pictilisib; first compound 0.4 µM) | relative viability (CAP-232 + Pictilisib; first compound 1.265 µM) | relative viability (CAP-232 + Pictilisib; first compound 4 µM) | relative viability (CAP-232 + Pictilisib; first compound 12.65 µM) | relative viability (CAP-232 + Lapatinib; first compound 0.4 µM) | relative viability (CAP-232 + Lapatinib; first compound 1.265 µM) | relative viability (CAP-232 + Lapatinib; first compound 4 µM) | relative viability (CAP-232 + Lapatinib; first compound 12.65 µM) | relative viability (CAP-232 + Foretinib; first compound 0.4 µM) | relative viability (CAP-232 + Foretinib; first compound 1.265 µM) | relative viability (CAP-232 + Foretinib; first compound 4 µM) | relative viability (CAP-232 + Foretinib; first compound 12.65 µM) | relative viability (CAP-232 + Olaparib; first compound 0.4 µM) | relative viability (CAP-232 + Olaparib; first compound 1.265 µM) | relative viability (CAP-232 + Olaparib; first compound 4 µM) | relative viability (CAP-232 + Olaparib; first compound 12.65 µM) | relative viability (CAP-232 + Alpelisib; first compound 0.4 µM) | relative viability (CAP-232 + Alpelisib; first compound 1.265 µM) | relative viability (CAP-232 + Alpelisib; first compound 4 µM) | relative viability (CAP-232 + Alpelisib; first compound 12.65 µM)
1 | Calu-6 | 1.12 | 1.02 | 1.15 | 0.74 | 0.963 | 0.941 | 0.831 | 0.446 | 1.05 | 1.01 | 0.929 | 0.988 | 1.16 | 1.04 | 0.947 | 0.653 | 0.961 | 0.842 | 0.988 | 0.555 | 0.956 | 0.889 | 0.945 | 0.585 | 1.26 | 1.03 | 1.15 | 0.664 | 0.867 | 1.02 | 0.995 | 0.561 | 0.616 | 0.542 | 0.623 | 0.394 | 1.09 | 1.08 | 1 | 0.654
2 | EBC-1 | 1.05 | 0.974 | 1.13 | 0.927 | 0.315 | 0.328 | 0.363 | 0.304 | 1.04 | 0.944 | 0.904 | 0.926 | 0.512 | 0.497 | 0.567 | 0.475 | 0.194 | 0.169 | 0.178 | 0.11 | 0.363 | 0.314 | 0.391 | 0.286 | 0.181 | 0.228 | 0.194 | 0.159 | 0.0884 | 0.129 | 0.101 | 0.0802 | 0.773 | 0.686 | 0.698 | 0.662 | 0.876 | 0.819 | 0.846 | 0.76
